How the values were obtained:
Homo sapiens = species: Homo sapiens; assay: Selectivity ratio of Ka for recombinant cathepsin-L (unknown origin) to Ka for recombinant cathepsin-B (unknown origin)
Cathepsin B = Cathepsin B (Homo sapiens, UniProt P07858); assay: Irreversible inhibition of recombinant cathepsin-B (unknown origin) using Z-Arg-Arg-AMC as substrate
Procathepsin L = Procathepsin L (Homo sapiens, UniProt P07711); assay: Irreversible inhibition of recombinant cathepsin-L (unknown origin) using Z-Phe-Arg-AMC as substrate
Procathepsin L, sequence (P07711 114-333 limits assumed): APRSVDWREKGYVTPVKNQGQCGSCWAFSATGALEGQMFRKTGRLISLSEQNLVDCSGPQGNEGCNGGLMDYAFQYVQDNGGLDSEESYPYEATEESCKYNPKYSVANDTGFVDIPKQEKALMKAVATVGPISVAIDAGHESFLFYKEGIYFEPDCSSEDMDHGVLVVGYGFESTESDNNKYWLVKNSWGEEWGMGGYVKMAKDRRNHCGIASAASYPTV

Compound | Ratio (Homo sapiens) | Ka (Cathepsin B) | Ka (Procathepsin L)
Cc1cccc(C)c1C(=O)OCC(=O)[C@H](CCCCN)NC(=O)[C@H](Cc1ccccc1)NC(=O)[C@H](Cc1c[nH]c2ccccc12)NC(=O)OCc1ccccc1 | 6.9 | 0.57 ×10⁵ /s/M | 3.92 ×10⁵ /s/M
Cc1cccc(C)c1C(=O)OCC(=O)[C@H](CCCCN)NC(=O)[C@H](Cc1ccccc1)NC(=O)OCc1ccccc1 | 7.8 | 0.38 ×10⁵ /s/M | 2.96 ×10⁵ /s/M
Cc1cccc(C)c1C(=O)OCC(=O)[C@H](CCCCN)NC(=O)[C@H](Cc1ccccc1)NC(=O)[C@H](CC(C)C)NC(=O)OCc1ccccc1 | 2 | 1.36 ×10⁵ /s/M | 2.69 ×10⁵ /s/M

Next, values leading:

Ratio (Homo sapiens) | Ka (Cathepsin B) | Ka (Procathepsin L) | Compound
0.3 | 8.22 ×10⁵ /s/M | 2.52 ×10⁵ /s/M | Cc1cccc(C)c1C(=O)OCC(=O)[C@H](CCCCN)NC(=O)[C@H](Cc1ccccc1)NC(=O)[C@H](CCCCN)NC(=O)OCc1ccccc1
11.5 | 0.76 ×10⁵ /s/M | 8.75 ×10⁵ /s/M | Cc1cccc(C)c1C(=O)OCC(=O)[C@H](CCCCN)NC(=O)[C@H](Cc1ccccc1)NC(=O)[C@H](CCCNC(=N)N)NC(=O)OCc1ccccc1
